The values that follow come from US5389645A, “Substituted tyrosyl diamine amide compounds” (G. D. Searle & Co., priority 1992, dated 1995).

Data set [1] concerns the target μ opioid receptors (Rattus norvegicus, UniProt P33535). The data set can be described thus: Opiate Binding Assay, displacement of 3[H]-DAMPGO from μ opioid receptors (rat forebrain membranes).
Data set [2] addresses δ opioid receptors (Rattus norvegicus, UniProt P33533). The data set can be described thus: Opiate Binding Assay, displacement of 3[H]-DSLET from δ opioid receptors (rat forebrain membranes).
The test system of data set [3] is mice. The data set can be described thus: Writhing Assay (phenylbenzoquinone-induced writhing, analgesia, s.c.). The format is in vivo, mouse. The following applies: for relative potency in the Writhing Assay: among compounds of the invention tested; for Number of Animals out of 10 Exhibiting Analgesia: subcutaneous, 5 mpk, PBQ, mice. From the text: The "Writhing Assay" is one of the most widely-used experimental procedures for measuring the analgesic activity of different narcotic and nonnarcotic analgesic agents, and involves the continuous, chemically-induced pain of visceral origin to an animal, such as a mouse or rat. [Gyires et al., Arch. int. Pharmacodyn, 267, 131-140 (1984); C. Vander Wende et al., Fed. Proc., 15, 494 (1956); Koster et al., Fed. Proc., 18, 412 (1959); and Witken et al., J. Pharmacol. Exp. Ther., 153,400-408 (1961).] Chemicals which may be used to induce this pain include phenylbenzoquinone (PBQ) and acetic acid. As a result of the chemical irritation to the animal, a characteristic stretching and writhing of the animal (dorsiflexion of the animal's back, extension of its hindlimbs and the strong contraction of its abdominal musculature) will generally occur. […] Drugs which reduce the number of writhes of the animal appear to restore the normal nociceptive threshold of the animal.
This assay was conducted generally in the manner described by R. I. Taber, "Predictive Value of Analgesic Assays in Mice and Rats," Advances in Biochemical Psychopharmacology, 8, 191 (1974).
Two hundred CD Charles River mice, weighing 20 to 30 grams, were used in this assay.
Twenty-five minutes after subcutaneous administration to the mice of 10 mg per kilogram (mpk) of body weight of a tyrosyl diamine amide compound of the invention (hereinafter "test compound"), 0.1 mL per 10 g of body weight of a 0.025% w/v solution of phenylbenzoquinone (PBQ) was injected intraperitoneally into each mouse. Some mice were given saline in place of a test compound, and were used as a control group.
Five minutes later, each mouse was individually placed into a glass beaker for observation, and the number of writhes occurring during the following ten-minute period was counted.
A compound was considered to be "active" (to have produced analgesia in a mouse) if, after the administration of 10 mg per kilogram (mpk) of body weight of the compound to the mouse, the number of writhes elicited by a mouse injected with PBQ was equal to, or less than, one-half the median number of writhes recorded for the saline-treated control group of mice that day, as described by R. I. Taber, supra.
The standard initial screening dose of a test compound employed in this assay was 10 mpk […]. […] (The slopes of the dose-response curves for the compounds analyzed were compared as described by Tallarida and Murray, Manual of Pharmacologic Calculations, Page 11 (Springer Verlag, New York, 1981)).

The conditions of data set [4]: extended use; cited from earlier work.
The subject of data set [5] is the same receptor sites as do the opiates. The following applies: cited from earlier work.
For data set [6] the following is noted: antagonized by naloxone; cited from earlier work.

Molecules are shown by their SMILES. Where a name gives a salt, the structure may show the parent alone.

Chain of δ opioid receptors (P33533 whole entry): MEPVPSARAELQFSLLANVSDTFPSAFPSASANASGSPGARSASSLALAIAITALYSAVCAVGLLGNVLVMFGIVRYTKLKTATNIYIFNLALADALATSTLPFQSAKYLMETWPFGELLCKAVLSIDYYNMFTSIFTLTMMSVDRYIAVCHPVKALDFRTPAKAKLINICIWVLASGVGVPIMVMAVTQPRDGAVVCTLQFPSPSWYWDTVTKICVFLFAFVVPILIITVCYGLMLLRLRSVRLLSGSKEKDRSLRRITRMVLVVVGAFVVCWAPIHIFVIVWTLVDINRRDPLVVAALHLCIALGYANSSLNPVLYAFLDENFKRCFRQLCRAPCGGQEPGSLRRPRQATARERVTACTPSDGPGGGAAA
Chain of μ opioid receptors (P33535 whole entry): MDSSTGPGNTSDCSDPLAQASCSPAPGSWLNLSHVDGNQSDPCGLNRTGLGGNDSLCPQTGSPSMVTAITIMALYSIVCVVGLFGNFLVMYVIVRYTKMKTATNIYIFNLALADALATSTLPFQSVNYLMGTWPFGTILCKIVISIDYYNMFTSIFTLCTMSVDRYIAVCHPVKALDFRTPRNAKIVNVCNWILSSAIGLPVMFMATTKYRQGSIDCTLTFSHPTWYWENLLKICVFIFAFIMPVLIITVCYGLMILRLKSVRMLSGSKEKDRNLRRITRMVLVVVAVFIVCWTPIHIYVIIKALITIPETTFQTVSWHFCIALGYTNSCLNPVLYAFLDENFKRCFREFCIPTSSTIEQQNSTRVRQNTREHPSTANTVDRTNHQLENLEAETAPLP

As usually defined, the IC50 is the concentration needed to halve the response being measured. Take `Cc1cc(O)cc(C)c1C[C@H](N)C(=O)NC(C)(C)CNC(=O)OCc1ccccc1` [Example 3, Phenylmethyl[2-[[2S-amino-3-(4-hydroxy-2,6-dimethylphenyl)-1-oxopropyl]amino]-2-methylpropyl]carbamate, monohydrochloride]: the IC50 in data set [1] worked out at 62 nM; in data set [2], 10 nM.

Consider `Cc1cc(O)cc(C)c1C[C@H](N)C(=O)NC(C)(C)CNC(=O)c1ccc2ccccc2n1` [Example 6, N-[2-[[2S-amino-3-(4-hydroxy-2,6-dimethylphenyl)-1-oxopropyl]amino]-2-methylpropyl]-2-quinolinecarboxamide, hydrochloride], for which the IC50 turned out to be 1.3 nM in data set [1] and 3.5 nM in data set [2]. The “relative potency in the Writhing Assay” value in data set [3] is “the most potent compounds of the invention tested in the Writhing Assay”. For the same molecule, the “Number of Animals out of 10 Exhibiting Analgesia” value in data set [3] is reported as 10/10.

With `Cc1cc(O)cc(C)c1C[C@H](N)C(=O)NC(C)(C)CNC(=O)c1cnc2ccccc2c1` [Example 8, N-[2-[[2S-amino-3-(4-hydroxy-2,6-dimethylphenyl)-1-oxopropyl]amino]-2-methylpropyl]-3-quinolinecarboxamide, hydrochloride], the IC50 was < 10 nM in data set [1] and 25 nM in data set [2].

Take `Cc1cc(O)cc(C)c1C[C@H](N)C(=O)NC(C)(C)CNC(=O)NCc1ccccc1` [Example 10, αS-amino-N-[1,1-dimethyl-2-[[[(phenylmethyl)amino]carbonyl]amino]ethyl]-4-hydroxy.2,6-dimethylbenzenepropanamide, hydrochloride]: the IC50 in data set [1] is < 10 nM; in data set [2], 23.1 nM.

With `Cc1cc(O)cc(C)c1C[C@H](N)C(=O)NCC(C)(C)NC(=O)NCc1ccccc1` [Example 11, αS-amino-4-hydroxy-2,6-dimethyl-N-[2-methyl-2-[[[(phenylmethyl)amino]carbonyl]amino]propyl]benzenepropanamide, hydrochloride], the IC50 was 58.6 nM in data set [1] and 32.8 nM in data set [2].

With `Cc1cc(O)cc(C)c1C[C@H](N)C(=O)NC(C)(C)CNC(=O)CCc1ccccc1` [Example 13, αS-amino-N-[1,1-dimethyl-2-[(1-oxo-3-phenylpropyl)amino]ethyl]-4-hydroxy-2,6-dimethylbenzenepropanamide, hydrochloride], the IC50 in data set [1] is < 10 nM. The IC50 in data set [2] was determined as 5.5 nM. In data set [3], the “relative potency in the Writhing Assay” value is on record as “the most potent compounds of the invention tested in the Writhing Assay” and the “Number of Animals out of 10 Exhibiting Analgesia” value is 10/10.

Regarding `Cc1cc(O)cc(C)c1C[C@H](N)C(=O)NCC(C)(C)NC(=O)CCc1ccccc1` [Example 14, αS-Amino-4-hydroxy-2,6-dimethyl-N-[2-methyl-2-[(1-oxo-3-phenylpropyl)amino]propyl]benzenepropanamide, hydrochloride], the IC50 in data set [1] amounted to 26.3 nM; in data set [2], 66.3 nM.

For `Cc1cc(O)cc(C)c1C[C@H](N)C(=O)N1CCN(Cc2ccccc2)CC1` [Example 15, 1-[2S-Amino-3-(4-hydroxy-2,6-dimethylphenyl)-1-oxopropyl]-4-(phenylmethyl)piperazine, dihydrochloride], the IC50 in data set [1] was determined as 4.5 nM; in data set [2], 14.9 nM.

As for `Cc1cc(O)cc(C)c1C[C@H](N)C(=O)NC(C)(C)CNC(=O)C#Cc1ccccc1` [Example 18, S-Amino-N-[1,1-dimethyl-2-[(1-oxo-3-phenyl-2-propynyl)amino]ethyl]-4-hydroxy-2,6-dimethylbenzenepropanamide, monohydrochloride], the IC50 in data set [1] was < 10 nM; in data set [2], 9.3 nM.

Turning to `CC(=O)Nc1ccc(O)cc1` [acetaminophen], in data set [4], the undesirable side effects entry is given as “liver toxicity”.

With `CC(C)C[C@H](NC(=O)[C@H](Cc1ccccc1)NC(=O)CNC(=O)CNC(=O)[C@@H](N)Cc1ccc(O)cc1)C(=O)O` [leucine enkephalin, H2 N-Tyr-Gly-Gly-Phe-Leu-OH], the “binding to the same receptor sites as do the opiates” value in data set [5] is on record as “bind to the same receptor sites as do the opiates”. In addition, the morphine-like actions result in data set [6] is “exhibit some weak morphine-like actions”.

`CSCC[C@H](NC(=O)[C@H](Cc1ccccc1)NC(=O)CNC(=O)CNC(=O)[C@@H](N)Cc1ccc(O)cc1)C(=O)O` [methionine enkephalin, H2 N-Tyr-Gly-Gly-Phe-Met-OH]: in data set [5], the “binding to the same receptor sites as do the opiates” value is “bind to the same receptor sites as do the opiates”. Further, the morphine-like actions result in data set [6] is “exhibit some weak morphine-like actions”.
